Results: patent US20170022258A1, “PEPTIDES FOR USE IN THE TREATMENT OF IL-1 RELATED DISEASES AND CONDITIONS” (C4M PHARMACEUTICALS PTY LTD., priority 2011, published 2017)
Where two headings read alike, the source gives them in different places. Non-standard residues stand in square brackets, D forms with d. Residues, ends and D or L forms follow the SMILES beside them.

Key:
horses = test: Testing of peptide 4 in horses for treatment of osteoarthritis and equine laminitis; type: in vivo, horse; conditions: 1 mg
Description: The peptides were prepared as compositions containing 1 mg of peptide dissolved in 5 ml of solution, comprising water, bicarbonate and either benzyl alcohol or methanol.

[1] = system: IL-1α+IFN-γ induced IL-17 production by HT-29 cells; test: IL-1α+IFN-γ induced IL-17 production by HT-29 cells; type: cell-based, human; conditions: 10 ng/ml IL-1α+300 U IFN-γ, peptide 10 ng/ml and 500 ng/ml, stimulated control 13.14±3.92, n=6, p<0.001
Description: (§1) Human colon epithelial cell lines HT-29 and Caco2 obtained from the European Collection of Animal Cell Cultures (ECACC) were used in cell cultures. Cells were routinely cultured at 37° C. in an atmosphere of 5% CO2 in 80 cm^2 tissue culture flasks in McCoy's and DMEM medium, respectively, supplemented with penicillin (10 u/ml), streptomycin (10 μg/ml), fungizone (0.5 μg/ml), and 10% (v/v) FCS (referred to as complete medium) until confluent.
(§2) Confluent monolayers were sub-cultured into 6-well plates for experimental protocols. Cells were grown in 6-well plates until confluent. Twenty-four hours prior to the experiment the confluent monolayers were washed and cultured in FCS-free McCoy's medium. Growth arrested cultures were then treated with fresh FCS-free medium and stimulated with vehicle controls or various doses of IL-1α added alone or in combination with other pro-inflammatory cytokines (TNF-α, IFN-γ) in the presence or absence of the peptide of sequence 4 or IL-1 ra, in a dose and time dependent manner.
(§3) Supernatants were collected, centrifuged to remove cellular debris and stored at −70° C. until assayed for extracellular inflammatory mediators. […] Production of soluble mediators was assessed by commercially available ELISA in supernatants, RT-PCR in total RNA extractants and nitric oxide, as described in Kolios, G, et al. (1995). […]

cows = test: Testing of peptide 4 in cows for treatment of mastitis; type: in vivo, cow; conditions: 1 mg, IV
Description: (§4) The peptides were prepared as compositions containing 1 mg of peptide dissolved in 5 ml of a solution comprising water, bicarbonate and either benzyl alcohol or methanol.

human subjects = test: Testing of peptide 4 in human subjects for treatment of different diseases and conditions; type: in vivo; conditions: 1 mg; for Duration: Single
Description: The peptide having the sequence 4 was tested to determine its effect on a range of different diseases in humans, horses and cows.
as §4

[2] = Stability of peptide once dissolved in solution (1 month); type: physicochemical; conditions: 1 mg in 5 ml water, bicarbonate and benzyl alcohol (19, 4) or methanol (13, 14)
Description: Each of the peptides having the sequences 13, 14, 19 and 4 were tested to determine their stability in a solution containing (preferred composition above) water, bicarbonate and either benzyl alcohol (peptide 19 and 4) or methanol (peptide 13 and 14). Each of the peptides were held for a period of 1 month at either 4° C. or at room temperature.
1 mg of each peptide was added to the water, bicarbonate and either benzyl alcohol or methanol solution and the solution was gently agitated for 1 hour at room temperature before standing at either 4° C. or at room temperature for a period of 1 month.

[3] = system: IL-1α-induced IL-8 production by Caco2 cells; test: IL-1α induced IL-8 production by Caco2 colonic adenocarcinoma cells; type: cell-based, human; conditions: peptide 100 ng/ml, FIG. 2
Description: as §1, §2, §3

[4] = system: thoroughbred having equine laminitis; test: Effect of peptides on equine laminitis (Obel Lameness Grades); type: in vivo, horse
Description: Each of the peptides having the sequences 13, 14, 19 and 4 were also tested to determine their effect on equine laminitis. Each peptide was administered intravenously to a thoroughbred having equine laminitis. The peptides were prepared as compositions containing 1 mg of peptide dissolved in 5 ml of a solution comprising water, bicarbonate and either benzyl alcohol or methanol. The effect of the peptides on equine laminitis was judged by the Obel Lameness Grades, which is a system of rating degrees of lameness resulting from laminitis. […] Obel Grade III horses do resist having a foreleg lifted, and are reluctant to walk. Obel Grade IV horses will walk only if forced. The Obel Score for each of the horses was measured before administration of the peptide and 24 hours after injection of the peptide. […] The effect in reducing laminitis which was caused by one single injection of the peptides on laminitis was short-lived. Therefore, the duration of the effect of the peptides in reducing laminitis was further assessed by attending veterinarians.

[5] = Solubility of peptide under different solvent conditions; type: physicochemical; conditions: 30 min room temperature
Description: 100 mg of each peptide was added to 100 ml total of water plus the solvents, and the solution was gently agitated for 30 min at room temperature.

With `CC(=O)N[C@H](CC(C)C)C(=O)N1CCC[C@@H]1C(=O)N[C@H](CC(C)C)C(=O)N[C@H](C)C(=O)N[C@H](Cc1ccc(O)cc1)C(=O)N1CCC[C@@H]1C(=O)N[C@H](CCC(N)=O)C(=O)N[C@H](Cc1c[nH]c2ccccc12)C(=O)N[C@H](Cc1ccc(O)cc1)C(=O)NCC(=O)N1CCC[C@@H]1C(=O)N[C@@H](C(=O)N[C@H](Cc1c[nH]c2ccccc12)C(=O)N[C@H](CCC(=O)O)C(=O)N[C@H](Cc1ccccc1)C(=O)O)[C@H](C)O` [SEQ ID NO. 4, Ac-LPLAYPQWYGPTWEF] (Ac-[dL][dP][dL][dA][dY][dP][dQ][dW][dY]G[dP][dT][dW][dE][dF]-OH; C-terminus assumed) the Duration (horses; Laminitis, IV) was 72 h, the Effect (horses; Laminitis, IV) was “Pronounced” and the Duration (horses; OA, Joint) was 48 h. The Effect (horses; OA, Joint) was “Moderate”, the “IL-1α+IFN-γ-induced IL-17 production” value [1] was 4.97±0.84 pg/ml per 106 cells and the Duration (cows) was 72 h. For the same compound, the Effect (cows) was “Pronounced”, the Effect (human subjects; Cancer Pain from Adrenal Cancer, IM, Repeated) was “Moderate” and the Effect (human subjects; Cancer Pain from Bone Metasta, IM, Repeated) was “Pronounced”. The Effect (human subjects; Cancer Pain from Lung Cancer, SC, Repeated) was “Pronounced”, the Effect (human subjects; Dermatitis, SC) was “Pronounced” and the Duration (human subjects; Dermatitis, SC) was “Single 96 hrs”. For the same compound, the Effect (human subjects; Emphysema, SC) was “Moderate”, the Duration (human subjects; Emphysema, SC) was “Single 48 hrs” and the Effect (human subjects; Lymphodema, IM) was “Pronounced”. The Duration (human subjects; Lymphodema, IM) was “Single 96 hrs”, the Effect (human subjects; Osteoarthritis, Joint) was “Mild” and the Duration (human subjects; Osteoarthritis, Joint) was “Single 48 hrs”. For the same compound, the Duration (human subjects; T1 Diabetes, IM) was “Single 96 hrs”, the Effect (human subjects; Tonsilitis, oral) was “Pronounced” and the Duration (human subjects; Tonsilitis, oral) was “Single 48 hrs”. For the same compound, the “Stability of peptide once dissolved in solution (at 1 month), 4° C. (month)” value ([2]; 4° C.) was 100%, the “Stability of peptide once dissolved in solution (at 1 month), Room Temp (month)” value ([2]; room temperature) was 96% and the “Effect on IL-1α-induced IL-8 secretion” value [3] was “significant decrease”. For the same compound, the “Change in Obel Score” value ([4]; 1 mg intravenously, before vs 24 hours after injection, most negative = greatest improvement) was −2.9, the “Duration (days) of effect on laminitis” value ([4]; single 1 mg intravenous, averaged, report by veterinarians) was 4 days and the solubility at 30 min ([5]; benzyl alcohol (0.1-1%) in water, benzyl alcohol (0.1-1%), 100 mg peptide in 100 ml, read-out: Solubility: Benzyl Alcohol) was > 1000 µg/mL. For the same compound, the solubility at 30 min ([5]; hydrochloric acid (0.1-1%) in water, hydrochloric acid (0.1-1%), 100 mg peptide in 100 ml water plus solvent, read-out: Solubility: Acid) was < 1000 µg/mL and the solubility at 30 min ([5]; sodium bicarbonate (0.1-1%) in water, sodium bicarbonate (0.1-1%), 100 mg peptide in 100 ml, read-out: Solubility: Base) was < 1000 µg/mL.
